The values below come from publication PMC6253249, “Protein-Ligand Fishing in planta for Biologically Active Natural Products Using Glutathione Transferases” (Frontiers in Plant Science, 2018).

The target in one experiment is T1, AtGSTF2 (Arabidopsis thaliana, UniProt P46422).
T1 construct: Strep-tag (N); made in house; host or cells: Escherichia coli (minimal medium)
T1 sequence (P46422 1-212): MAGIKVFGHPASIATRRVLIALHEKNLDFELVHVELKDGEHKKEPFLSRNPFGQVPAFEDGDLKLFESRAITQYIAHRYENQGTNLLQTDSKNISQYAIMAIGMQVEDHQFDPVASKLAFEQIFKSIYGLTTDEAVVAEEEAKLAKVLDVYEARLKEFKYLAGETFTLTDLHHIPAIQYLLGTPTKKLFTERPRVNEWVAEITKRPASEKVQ
In words: Isothermal titration calorimetry (ITC) of ligand binding to Strep-tagged AtGSTF2. The note with it: for N (binding stoichiometry) / ΔH: 25°C, HBS, 1 mM glutathione, 0.1% w/v Tween 20. How it is done: (§1) Isothermal titration calorimetry (ITC) experiments were performed at 25°C in HBS buffer and analyzed using a VP-ITC instrument with Origin 7.0 software (GE Healthcare, Amersham, United Kingdom). Where ligands were added in solvents, an equivalent volume of ethanol was used as control. With the flavonols, 0.1% w/v Tween 20 was used to increase ligand solubility. In addition to titrating ligand into protein, control titrations of ligand into buffer and buffer into protein were performed. For studies with AtGSTF2, the respective Strep-tagged protein was purified from E. coli grown in minimal medium to minimize contamination with pre-bound ligands and used in ITC assuming 1:1 binding to ligand, as previously determined ([Dixon et al., 2011]).
(§2) To investigate the binding characteristics of the ligands to the GSTs, isothermal titration calorimetry (ITC) was used to determine binding affinity and stoichiometry. With AtGSTF2 the commercially available compounds kaempferol and kaempferol-3,7′-dimethylether were used, along with the methylated flavonols purified from the surface of the tobacco leaves (Table 2 and Supplementary Figure S4). […] When AtGSTU19 was tested with ISSG, tight and stoichiometric binding was determined (Table 2 and Supplementary Figure S5). AtGSTU19 enzyme activity, as determined by the GSH conjugation of 1-chloro-2,4-dinitrobenzene, was inhibited by ISSG in a competitive manner with respect to GSH, confirming that ISSG binding occurred at the enzyme active site.
Supplementary Figure S4. Typical ITC data for GSTF2 (7.7 µM) binding to compound 11 (putative kaempferol-3,7’-dimethylether). The experiment was performed in HBS containing 1 mM GSH, 0.1% Tween 20 and 1% ethanol. The associated line indicates best fit curves for a one set of sites binding model.

Experiment [1] deals with T2, AtGSTU19 (Arabidopsis thaliana, UniProt Q9ZRW8).
T2 construct: Strep-tag (N)
T2 sequence (Q9ZRW8 whole entry): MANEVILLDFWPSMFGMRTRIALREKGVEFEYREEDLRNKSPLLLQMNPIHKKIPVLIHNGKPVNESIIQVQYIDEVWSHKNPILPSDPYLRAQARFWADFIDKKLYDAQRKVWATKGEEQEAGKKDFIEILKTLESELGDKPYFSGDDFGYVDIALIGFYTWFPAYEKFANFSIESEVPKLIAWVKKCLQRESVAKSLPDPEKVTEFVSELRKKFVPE
In words: AtGSTU19 enzyme activity, GSH conjugation of 1-chloro-2,4-dinitrobenzene, inhibition. Format: biochemical. The note with it: with respect to GSH; substrate 1-chloro-2,4-dinitrobenzene. On the procedure:
as §2

Experiment [2] addresses T2, AtGSTU19. Briefly: Isothermal titration calorimetry (ITC) of ligand binding to AtGSTU19. The conditions noted are these: 25°C, HBS, no cofactor listed. On the procedure:
as §1, §2
Supplementary Figure S5. Analysis of GSTU19 ligand binding by ITC.
Binding of ISSG to 11.1 uM GSTU19. A best fit line corresponding to a one set of
sites binding model is shown.

The target in a further experiment is T3, GSTU19 (Arabidopsis thaliana, UniProt Q9ZRW8).
T3 construct: recombinant, Strep-tagged
T3 sequence (Q9ZRW8 whole entry): as above
In words: Isothermal titration calorimetry at 25 °C in HBS, ligand titrated into GSTU19, no GSH marked for these rows, one-set-of-sites fit. Type of experiment: binding. The note with it: read-out: Ka (μM^-1) (converted). On the procedure:
as §1
To investigate the binding characteristics of the ligands to the GSTs, isothermal titration calorimetry (ITC) was used to determine binding affinity and stoichiometry. […] When AtGSTU19 was tested with ISSG, tight and stoichiometric binding was determined (Table 2 and Supplementary Figure S5). AtGSTU19 enzyme activity, as determined by the GSH conjugation of 1-chloro-2,4-dinitrobenzene, was inhibited by ISSG in a competitive manner with respect to GSH, confirming that ISSG binding occurred at the enzyme active site. […]

In another experiment the test system is GSTUs from poppy. More on the design: method as in Yu and Facchini, 2000. The conditions noted are these: ref Yu and Facchini, 2000; cited from earlier work.

In the case of `COc1cc(O)c2c(=O)c(OC)c(-c3ccc(O)cc3)oc2c1` [Compound 11, kaempferol-3,7′-dimethylether], the Kd on AtGSTF2 came out at 220 nM.

Take `COc1ccc(-c2oc3cc(OC)cc(O)c3c(=O)c2OC)cc1` [Compound 13, kaempferol-3,7,4′-trimethylether]: on AtGSTF2, the Kd was less than 1000 nM, the “N (binding stoichiometry)” value came out at 0.54 ± 0.01 and the ΔH is on record as -18.4 ± 0.2 kcal/mol.

Take `NC(CCC(=O)NC(CSSCc1c[nH]c2ccccc12)C(=O)NCC(=O)O)C(=O)O` (stereo not drawn) [ISSG, 3-methylindolyl glutathionyl disulfide]: the “Mode of inhibition of AtGSTU19 enzyme activity” value on AtGSTU19 [1] was “competitive”. Further, on AtGSTU19 [2], the “N (binding stoichiometry)” value is 0.98 ± 0.01 and the ΔH is given as -10.6 ± 0.1 kcal/mol.

On to `N[C@@H](CCC(=O)N[C@@H](CSSCc1c[nH]c2ccccc12)C(=O)NCC(=O)O)C(=O)O` [ISSG, 3-methylindolyl glutathionyl disulfide], for which the Kd at GSTU19 is 0.117 µM.

As for `CCCCCCSC[C@H](NC(=O)CC[C@H](N)C(=O)O)C(=O)NCC(=O)O` [S-hexylglutathione, reference compound], at AtGSTU19 [2], the “N (binding stoichiometry)” value amounted to 0.84 ± 0.01 and the ΔH is -11.8 ± 0.1 kcal/mol.

In the case of `CCCCCCSC[C@H](NC(=O)CC[C@H](N)C(=O)O)C(=O)NCC(=O)O` [S-hexylglutathione], at GSTU19, the Kd is 0.311 µM.

`COc1cc(/C=C/C(=O)NCCc2ccc(O)cc2)ccc1O` [feruloyltyramine, N-trans-feruloyltyramine]: in the experiment with GSTUs from poppy, the “Inhibition of poppy GSTUs (in words)” value was “weakly inhibiting”.

Regarding `O=c1c(O)c(-c2ccc(O)cc2)oc2cc(O)cc(O)c12` [kaempferol, reference compound], on AtGSTF2, the Kd came to 12000 nM, the “N (binding stoichiometry)” value was 0.60 ± 0.05 and the ΔH is -12.6 ± 1.4 kcal/mol.
